Where two headings read alike, the source gives them in different places.
Experiment: Solubility testing of (Z)-endoxifen in single solvents
Assay type: physicochemical
Details: for solubility at 15 min: 25 °C; for solubility at 15 min / solubility: thermodynamic from solid
Description: To test the solubility of (Z)-endoxifen in varying conditions, 10 mg of (Z)-endoxifen was added to a stoppered tube, and 0.01 ml of the selected solvent was added (1000 mg/ml solution). The tube was shaken vigorously for 1 minute and then incubated at a constant temperature of 25.0° C. for 15 minutes. If the solid was not completed dissolved, the tube was shaken again and placed at the constant temperature of 25.0° C. for another 15 minutes. If the solid was completely dissolved at this step, it was considered to be very soluble in the selected solvent system. If the solid was not dissolved by this step, another 0.09 ml was added (yielding a 100 mg/ml solution) and an attempt to further dissolve the solid was made by the same steps of shaking and incubating twice over as described previously. If the solid was completely dissolved at this step, it was considered freely soluble. If the solid was not dissolved by this step another 0.2 ml was added (yielding a 33.3 mg/ml solution) and an attempt to further dissolve the solid was made by the same steps of shaking and incubating twice over as described previously. If the solid was completely dissolved at this step, it was considered soluble. If the solid was not dissolved by this step another, 0.7 ml was added (yielding a 10 mg/ml solution) and an attempt to further dissolve the solid was made by the same steps of shaking and incubating twice over as described previously. If the solid was completely dissolved at this step, it was considered sparingly soluble. If the solid was not dissolved by this step the sample was considered to be slightly soluble or very slightly soluble and the solution was heated until the boiling point of the solvent system (max 100° C.) under stirring with a rate of 0.5° C. per minute temperature ramp rate to verify the solubility at high temperatures. The hot solution was after cooled to room temperature with a cooling rate of 0.5° C. per minute to verify if the sample had precipitated after up to 18 hours under magnetic stirring. The same procedure was also used for the solvent mixture solubility tests. The concentrations investigated for the solvent mixture stability were 40 mg/ml and 100 mg/ml. Some solutions in the following example were precipitated by cooling of the solution from a temperature between 50-100° C. to between 10-25° C. at a rate ranging from −0.2 to −0.5° C./minute resulting in a precipitate.

[1] = solvent butyl acetate, 100 mg/mL
[2] = solvent ethyl acetate, 100 mg/mL
[3] = solvent methyl isobutyl ketone (4-methyl-2-pentanone), 100 mg/mL
[4] = solvent methyl isobutyl ketone (4-methyl-2-pentanone), 200 mg/mL

CC/C(=C(\c1ccc(O)cc1)c1ccc(OCCNC)cc1)c1ccccc1 [(Z)-endoxifen, (Z)-4-(1-(4-(2-(methylamino)ethoxy)phenyl)-2-phenylbut-1-enyl)phenol]
74.8 °C: Solubility HT (100 mg/mL): Clear point [3]
56 °C: Solubility HT (10 mg/mL): Clear point (solvent acetonitrile, 10 mg/mL)
38 °C: Solubility HT (20 mg/mL): Clear point (solvent acetone, 20 mg/mL) | Solubility HT (10 mg/mL): Clear point (solvent ethyl acetate, 10 mg/mL)
< 50 mg/mL: solubility (acetone, organic solvent or mixture, acetone, high temperature, read-out: Solubility)
44 °C: Solubility HT (10 mg/mL): Clear point (solvent 2-propanol, 10 mg/mL) | Solubility HT (10 mg/mL): Clear point (solvent methyl isobutyl ketone (4-methyl-2-pentanone), 10 mg/mL)
50.6 °C: Solubility HT (20 mg/mL): Clear point (solvent 2-propanol, 20 mg/mL)
YES: Solubility HT (10 mg/mL): Sol. HT (solvent 2-propanol, 10 mg/mL, high temperature) | Solubility HT (20 mg/mL): Sol. HT (solvent 2-propanol, 20 mg/mL, high temperature) | Solubility HT (20 mg/mL): Re-PPT (solvent 2-propanol, 20 mg/mL, on cooling) | Solubility HT (100 mg/mL): Sol. HT (solvent 2-propanol, 100 mg/mL, high temperature) | Solubility HT (100 mg/mL): Re-PPT (solvent 2-propanol, 100 mg/mL, on cooling) | Solubility HT (10 mg/mL): Sol. HT (solvent acetone, 10 mg/mL, high temperature) | Solubility HT (20 mg/mL): Re-PPT after 18 hours at −20° C. (solvent acetone, 20 mg/mL) | Solubility HT (20 mg/mL): Sol. HT (solvent acetone, 20 mg/mL, high temperature) | Solubility HT (10 mg/mL): Sol. HT (solvent acetonitrile, 10 mg/mL, high temperature) | Solubility HT (10 mg/mL): Re-PPT (solvent acetonitrile, 10 mg/mL, on cooling) | Solubility HT (20 mg/mL): Sol. HT (solvent acetonitrile, 20 mg/mL, high temperature) | Solubility HT (20 mg/mL): Re-PPT (solvent acetonitrile, 20 mg/mL, on cooling) | Solubility HT (10 mg/mL): Sol. HT (solvent butyl acetate, 10 mg/mL, high temperature) | Solubility HT (20 mg/mL): Sol. HT (solvent butyl acetate, 20 mg/mL, high temperature) | Solubility HT (100 mg/mL): Sol. HT (solvent butyl acetate, 100 mg/mL, high temperature) | Solubility HT (100 mg/mL): Re-PPT (solvent butyl acetate, 100 mg/mL, on cooling) | Solubility HT (10 mg/mL): Sol. HT (solvent ethanol, 10 mg/mL, high temperature) | Solubility HT (20 mg/mL): Sol. HT (solvent ethanol, 20 mg/mL, high temperature) | Solubility HT (20 mg/mL): Re-PPT (solvent ethanol, 20 mg/mL, on cooling) | Solubility HT (100 mg/mL): Sol. HT (solvent ethanol, 100 mg/mL, high temperature) | Solubility HT (100 mg/mL): Re-PPT (solvent ethanol, 100 mg/mL, on cooling) | Solubility HT (10 mg/mL): Sol. HT (solvent ethyl acetate, 10 mg/mL, high temperature) | Solubility HT (20 mg/mL): Sol. HT (solvent ethyl acetate, 20 mg/mL, high temperature) | Solubility HT (100 mg/mL): Sol. HT (solvent ethyl acetate, 100 mg/mL, high temperature) | Solubility HT (100 mg/mL): Re-PPT (solvent ethyl acetate, 100 mg/mL, on cooling) | Solubility HT (10 mg/mL): Sol. HT (solvent methyl isobutyl ketone (4-methyl-2-pentanone), 10 mg/mL, high temperature) | Solubility HT (20 mg/mL): Sol. HT (solvent methyl isobutyl ketone (4-methyl-2-pentanone), 20 mg/mL, high temperature) | Solubility HT (100 mg/mL): Re-PPT after 18 hours at −20° C. [3] | Solubility HT (100 mg/mL): Sol. HT (solvent methyl isobutyl ketone (4-methyl-2-pentanone), 100 mg/mL, high temperature) | Solubility HT (200 mg/mL): Sol. HT (solvent methyl isobutyl ketone (4-methyl-2-pentanone), 200 mg/mL, high temperature) | Solubility HT (200 mg/mL): Re-PPT (solvent methyl isobutyl ketone (4-methyl-2-pentanone), 200 mg/mL, on cooling) | Solubility HT (10 mg/mL): Sol. HT (solvent toluene, 10 mg/mL, high temperature) | Solubility HT (20 mg/mL): Sol. HT (solvent toluene, 20 mg/mL, high temperature) | Solubility HT (100 mg/mL): Sol. HT (solvent toluene, 100 mg/mL, high temperature) | Solubility HT (100 mg/mL): Re-PPT (solvent toluene, 100 mg/mL, on cooling)
30 °C: Solubility HT (10 mg/mL): Clear point (solvent acetone, 10 mg/mL)
77.8 °C: Solubility HT (20 mg/mL): Clear point (solvent toluene, 20 mg/mL)
< 10000 µg/mL: solubility at 15 min (acetonitrile, organic solvent or mixture, acetonitrile, room temperature, read-out: Solubility) | solubility at 15 min (acetonitrile, organic solvent or mixture, solvent acetonitrile, room temperature, read-out: Solubility at RT) | solubility at 15 min (heptane, organic solvent or mixture, heptane, room temperature, read-out: Solubility) | solubility at 15 min (heptane, organic solvent or mixture, solvent heptane, room temperature, read-out: Solubility at RT) | solubility at 15 min (t-butyl methyl ether, organic solvent or mixture, t-butyl methyl ether, room temperature, read-out: Solubility) | solubility at 15 min (water, water, solvent water, room temperature, read-out: Solubility at RT) | solubility at 15 min (water, water, water, room temperature, read-out: Solubility)
250000 to 500000 µg/mL: solubility at 15 min (DMF, organic solvent or mixture, DMF, read-out: Solubility)
96.6 °C: Solubility HT (100 mg/mL): Clear point (solvent toluene, 100 mg/mL)
49.3 °C: Solubility HT (20 mg/mL): Clear point (solvent methyl isobutyl ketone (4-methyl-2-pentanone), 20 mg/mL)
100 to 200 mg/mL: solubility (4-met-2-pentanone, organic solvent or mixture, 4-met-2-pentanone, high temperature, read-out: Solubility)
54.2 °C: Solubility HT (100 mg/mL): Cloudy point [2]
< 100 mg/mL: solubility (acetone, organic solvent or mixture, solvent acetone, 100 mg/mL, high temperature, read-out: Solubility HT (100 mg/mL): Sol. HT) | solubility (acetonitrile, organic solvent or mixture, solvent acetonitrile, 100 mg/mL, high temperature, read-out: Solubility HT (100 mg/mL): Sol. HT)
50 °C: Solubility HT (10 mg/mL): Clear point (solvent butyl acetate, 10 mg/mL)
56.8 °C: Solubility HT (20 mg/mL): Clear point (solvent butyl acetate, 20 mg/mL)
74.4 °C: Solubility HT (100 mg/mL): Clear point (solvent 2-propanol, 100 mg/mL) | Solubility HT (100 mg/mL): Clear point [2]
10000 µg/mL: solubility at 15 min (2-propanol, organic solvent or mixture, 2-propanol, room temperature, read-out: Solubility) | solubility at 15 min (2-propanol, organic solvent or mixture, solvent 2-propanol, room temperature, read-out: Solubility at RT) | solubility at 15 min (4-met-2-pentanone, organic solvent or mixture, 4-met-2-pentanone, room temperature, read-out: Solubility) | solubility at 15 min (acetone, organic solvent or mixture, acetone, room temperature, read-out: Solubility) | solubility at 15 min (acetone, organic solvent or mixture, solvent acetone, room temperature, read-out: Solubility at RT) | solubility at 15 min (butyl acetate, organic solvent or mixture, butyl acetate, room temperature, read-out: Solubility) | solubility at 15 min (butyl acetate, organic solvent or mixture, solvent butyl acetate, room temperature, read-out: Solubility at RT) | solubility at 15 min (butyl methyl ether, organic solvent or mixture, solvent butyl methyl ether, room temperature, read-out: Solubility at RT) | solubility at 15 min (ethanol, organic solvent or mixture, ethanol, room temperature, read-out: Solubility) | solubility at 15 min (ethanol, organic solvent or mixture, solvent ethanol, room temperature, read-out: Solubility at RT) | solubility at 15 min (ethyl acetate, organic solvent or mixture, ethyl acetate, room temperature, read-out: Solubility) | solubility at 15 min (ethyl acetate, organic solvent or mixture, solvent ethyl acetate, room temperature, read-out: Solubility at RT) | solubility at 15 min (methyl isobutyl ketone (4-methyl-2-pentanone), organic solvent or mixture, solvent methyl isobutyl ketone (4-methyl-2-pentanone), room temperature, read-out: Solubility at RT) | solubility at 15 min (toluene, organic solvent or mixture, solvent toluene, room temperature, read-out: Solubility at RT) | solubility at 15 min (toluene, organic solvent or mixture, toluene, room temperature, read-out: Solubility)
20 to 100 mg/mL: solubility (2-propanol, organic solvent or mixture, 2-propanol, high temperature, read-out: Solubility) | solubility (acetonitrile, organic solvent or mixture, acetonitrile, high temperature, read-out: Solubility) | solubility (butyl acetate, organic solvent or mixture, butyl acetate, high temperature, read-out: Solubility) | solubility (ethanol, organic solvent or mixture, ethanol, high temperature, read-out: Solubility) | solubility (ethyl acetate, organic solvent or mixture, ethyl acetate, high temperature, read-out: Solubility) | solubility (toluene, organic solvent or mixture, toluene, high temperature, read-out: Solubility)
111000 to 125000 µg/mL: solubility at 15 min (THF, organic solvent or mixture, THF, read-out: Solubility) | solubility at 15 min (tetrahydrofuran, organic solvent or mixture, solvent tetrahydrofuran, room temperature, read-out: Solubility at RT)
43.9 °C: Solubility HT (100 mg/mL): Cloudy point (solvent 2-propanol, 100 mg/mL)
48.5 °C: Solubility HT (200 mg/mL): Cloudy point [4]
49.2 °C: Solubility HT (20 mg/mL): Clear point (solvent ethyl acetate, 20 mg/mL)
94.5 °C: Solubility HT (100 mg/mL): Clear point [1]
75 °C: Solubility HT (20 mg/mL): Clear point (solvent acetonitrile, 20 mg/mL)
< 10 mg/mL: solubility (butyl methyl ether, organic solvent or mixture, solvent butyl methyl ether, 10 mg/mL, high temperature, read-out: Solubility HT (10 mg/mL): Sol. HT) | solubility (heptane, organic solvent or mixture, heptane, high temperature, read-out: Solubility) | solubility (heptane, organic solvent or mixture, solvent heptane, 10 mg/mL, high temperature, read-out: Solubility HT (10 mg/mL): Sol. HT) | solubility (t-butyl methyl ether, organic solvent or mixture, t-butyl methyl ether, high temperature, read-out: Solubility) | solubility (water, 100 °C, water, solvent water, 10 mg/mL, high temperature, read-out: Solubility HT (10 mg/mL): Sol. HT) | solubility (water, 100 °C, water, water, high temperature, read-out: Solubility)
66 °C: Solubility HT (100 mg/mL): Clear point (solvent ethanol, 100 mg/mL) | Solubility HT (10 mg/mL): Clear point (solvent toluene, 10 mg/mL)
200000 to 250000 µg/mL: solubility at 15 min (dimethylformamide (stored as limethylformamide), organic solvent or mixture, solvent limethylformamide, room temperature, read-out: Solubility at RT)
39.7 °C: Solubility HT (100 mg/mL): Cloudy point (solvent ethanol, 100 mg/mL)
25 °C: Solubility HT (100 mg/mL): Cloudy point [1] | Solubility HT (100 mg/mL): Cloudy point (solvent toluene, 100 mg/mL)
17000 to 20000 µg/mL: solubility at 15 min (methanol, organic solvent or mixture, methanol, read-out: Solubility) | solubility at 15 min (methanol, organic solvent or mixture, solvent methanol, room temperature, read-out: Solubility at RT)
84 °C: Solubility HT (200 mg/mL): Clear Point [4]
34 °C: Solubility HT (10 mg/mL): Clear point (solvent ethanol, 10 mg/mL) | Solubility HT (20 mg/mL): Clear point (solvent ethanol, 20 mg/mL)

— patent US20250066286A1, “COMPOSITIONS OF (Z)-ENDOXIFEN AND METHODS OF ENRICHMENT THEREOF” (Atossa Therapeutics, Inc., priority 2022, published 2025)
